Starred links: 1 amine or outer side, 2 acyl side, 3 side chain; linkers in the order of their positions; H or OH if unused. Positions of bridges follow the written chain, without caps; N, C: chain ends. Non-standard residues stand in square brackets, D forms with d. Residues, ends and D or L forms follow the SMILES beside them. Groups on a side chain read outwards from the residue. *: point of attachment. Me3N+(CH2)2O(CH2)2O(CH2)2CO = C[N+](C)(C)CCOCCOCCC(=O)*; CH2CH2OCH2CH2OCH2CH2NMe3+ = C[N+](C)(C)CCOCCOCC*; Phe(4-N3) = [N-]=[N+]=Nc1ccc(C[C@H](N)C(=O)O)cc1; Trp(7-Me) = Cc1cccc2c(C[C@H](N)C(=O)O)c[nH]c12; Decanoyl(3,6,9-trioxa) = COCCOCCOCC(=O)*; X1 = CN(CC[C@H](N[*:1])C(=O)[*:2])[*:3]; X47 = C[N+]1(C)CC[N+]2(CCN(CC*)CC2)CC1; γGlu = O=C(O)[C@H](CCC(=O)[*:2])N[*:1]; 2Nal = N[C@@H](Cc1ccc2ccccc2c1)C(=O)O; AEF = NCCOc1ccc(C[C@H](N)C(=O)O)cc1; X24 = C[N+](C)(CCN[*:1])CC(=O)[*:2]; 3Pal = N[C@@H](Cc1cccnc1)C(=O)O; Lys(Me) = CNCCCC[C@H](N)C(=O)O; X7 = COCCOCCOCCOCCOCCOCCC(=O)*; Pen = CC(C)(S)[C@H](N)C(=O)O; Lauroyl = CCCCCCCCCCCC(=O)*; Thp = NC1(C(=O)O)CCOCC1; X3 = C[N+](C)(C)CCCCC*; AEEA = NCCOCCOCC(=O)O; Sar = CNCC(=O)O
Columns and labels:
IL-23R = biological target: T1, IL-23R (Homo sapiens, UniProt Q5VWK5); experiment: IL23R Reporter Assay; assay type: cell-based; details: HEK293 cells containing IL-23R, IL-12RP1 and STAT-inducible firefly luciferase reporter; 10 ng/mL IL-23 (EC90); 5 h at 37° C.; read-out: IL23R Reporter Assay
T1 construct: host or cells: HEK293
T1 sequence (Q5VWK5 24-629): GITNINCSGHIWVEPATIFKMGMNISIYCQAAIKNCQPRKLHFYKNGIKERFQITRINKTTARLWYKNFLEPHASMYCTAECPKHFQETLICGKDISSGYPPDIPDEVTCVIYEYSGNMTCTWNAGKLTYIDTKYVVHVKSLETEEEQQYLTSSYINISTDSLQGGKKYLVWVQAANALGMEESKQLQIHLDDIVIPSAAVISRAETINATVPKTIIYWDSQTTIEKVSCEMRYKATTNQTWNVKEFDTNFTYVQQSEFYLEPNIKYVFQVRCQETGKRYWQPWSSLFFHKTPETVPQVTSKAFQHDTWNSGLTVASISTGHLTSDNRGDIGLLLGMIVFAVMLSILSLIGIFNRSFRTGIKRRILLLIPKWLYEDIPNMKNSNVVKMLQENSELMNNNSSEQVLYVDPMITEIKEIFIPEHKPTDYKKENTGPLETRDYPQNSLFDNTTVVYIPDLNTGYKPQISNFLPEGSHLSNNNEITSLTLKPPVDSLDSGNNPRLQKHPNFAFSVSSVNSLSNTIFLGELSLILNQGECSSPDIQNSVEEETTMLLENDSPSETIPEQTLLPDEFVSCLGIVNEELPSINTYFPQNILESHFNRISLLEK

[1] = Exposed Polar Surface Area (EPSA); assay type: physicochemical; details: SFC on Chirex 3014 column; sample 1 mM DMSO stock; read-out: EPSA
Procedure, shortened: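 Compounds, as 1 mM DMSO stock, were injected in duplicate onto an SFC Chirex 3014 column at 35 °C and eluted with a CO2/methanol (20 mM ammonium formate) gradient. EPSA values in Å^2 were derived from retention times using a linear fit to eight calibration standards, reinjected every 20 compounds.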

Row | IC50 (IL-23R) | EPSA [1] | Structure (SMILES)
1 | 5.7 nM | 140 A^2 | COCCOCCOCCOCCOCCOCCC(=O)N(C)CC[C@@H]1NC(=O)[C@H](Cc2c[nH]c3c(C)cccc23)NC(=O)[C@H]([C@@H](C)O)NC(=O)[C@H](CC(=O)N(C)C)NC(=O)[C@@H](NC(C)=O)C(C)(C)SSC(C)(C)[C@@H](C(=O)N[C@@H](Cc2ccc(OCCN)cc2)C(=O)N[C@@H](Cc2ccc3ccccc3c2)C(=O)NC2(C(=O)N[C@@H](CCN(C)C(=O)CCOCCOCCOCCOCCOCCOC)C(=O)N[C@@H](CC(N)=O)C(=O)N[C@@H](Cc3cccnc3)C(=O)N(C)CC(=O)N(C)C)CCOCC2)NC1=O [compound 141, MeCO-Pen(3)-N(N(Me)2)-T-7MeW-Dab(NMeCOmPEG6)-Pen(3)-AEF-2Nal-THP-Dab(NMeCOmPEG6)-N-3Pya-Sar-CON(Me)2] (Ac-[Pen]D(NMe2)T[Trp(7-Me)][X1](X7)[Pen][AEF][2Nal][Thp][X1](X7)N[3Pal][Sar]-NMe2; disulfide 1-6)
2 | 4.1 nM | 136 A^2 | COCCOCCOCC(=O)NCC[N+](C)(C)CC(=O)N[C@@H]1C(=O)N[C@@H](CC(=O)N(C)C)C(=O)N[C@@H]([C@@H](C)O)C(=O)N[C@@H](Cc2c[nH]c3c(C)cccc23)C(=O)N[C@@H](CCCCN(C)C(C)=O)C(=O)N[C@H](C(=O)N[C@@H](Cc2ccc(OCCOCCOCC[N+](C)(C)C)cc2)C(=O)N[C@@H](Cc2ccc3ccccc3c2)C(=O)NC2(C(=O)N[C@@H](CCCCN(C)C(C)=O)C(=O)N[C@@H](CC(N)=O)C(=O)N[C@@H](Cc3cccnc3)C(=O)N(C)CC(=O)N(C)C)CCOCC2)C(C)(C)SSC1(C)C [compound 225, mPEG3CO-SP6-Pen(3)-N(N(Me)2)-T-7MeW-K(NMeAc)-Pen(3)-APEG3F-2Nal-THP-K(NMeAc)-N-3Pya-Sar-CON(Me)2] ({Decanoyl(3,6,9-trioxa)}-[X24][Pen]D(NMe2)T[Trp(7-Me)][Lys(Me)](Ac)[Pen]Y(CH2CH2OCH2CH2OCH2CH2NMe3+)[2Nal][Thp][Lys(Me)](Ac)N[3Pal][Sar]-NMe2; disulfide 2-7)
3 | 0.83 nM | 154 A^2 | CC(=O)NC(COCCOCC[N+](C)(C)C)C(=O)N[C@@H]1C(=O)N[C@@H](CC(=O)N(C)C)C(=O)N[C@@H]([C@@H](C)O)C(=O)N[C@@H](Cc2c[nH]c3c(C)cccc23)C(=O)N[C@@H](CCCCN(C)C(C)=O)C(=O)N[C@H](C(=O)N[C@@H](Cc2ccc(OCCn3cc(CCCC[N+](C)(C)C)nn3)cc2)C(=O)N[C@@H](Cc2ccc3ccccc3c2)C(=O)NC2(C(=O)N[C@@H](CCCCN(C)C(C)=O)C(=O)N[C@@H](CC(N)=O)C(=O)N[C@@H](Cc3cccnc3)C(=O)N(C)CC(=O)N(C)C)CCOCC2)C(C)(C)SSC1(C)C (mixture of isomers) [compound 545, MeCO-APEG2Ser(RS)-Pen(3)-N(N(Me)2)-T-7MeW-K(NMeAc)-Pen(3)-Y(OTzlTMA4)-2Nal-THP-K(NMeAc)-N-3Pya-Sar-CON(Me)2]
4 | 290 nM | 173 A^2 | CCCCCCCCCCCC(=O)N[C@@H](CCC(=O)NCCOCCOCC(=O)NCCOCCOCC(=O)NCCCC[C@@H]1NC(=O)[C@H](Cc2c[nH]c3c(C)cccc23)NC(=O)[C@H]([C@@H](C)O)NC(=O)[C@H](CC(=O)N(C)C)NC(=O)[C@@H](NC(=O)CCOCCOCC[N+](C)(C)C)C(C)(C)SSC(C)(C)[C@@H](C(=O)N[C@@H](Cc2ccc(OCCCCC[N+](C)(C)C)cc2)C(=O)N[C@@H](Cc2ccc3ccccc3c2)C(=O)NC2(C(=O)N[C@@H](CCCCNC(=O)COCCOCCNC(=O)COCCOCCNC(=O)CC[C@H](NC(=O)CCCCCCCCCCC)C(=O)O)C(=O)N[C@@H](CC(N)=O)C(=O)N[C@@H](Cc3cccnc3)C(=O)N(C)CC(=O)N(C)C)CCOCC2)NC1=O)C(=O)O [compound 400, cPEG3aCO-Pen(3)-N(N(Me)2)-T-7MeW-K(PEG2PEG2gEC12)-Pen(3)-TMAPF-2Nal-THP-K(PEG2PEG2gEC12)-N-3Pya-Sar-CON(Me)2] ({Me3N+(CH2)2O(CH2)2O(CH2)2CO}-[Pen]D(NMe2)T[Trp(7-Me)]K([AEEA-AEEA-γGlu-Lauroyl])[Pen]Y(X3)[2Nal][Thp]K([AEEA-AEEA-γGlu-Lauroyl])N[3Pal][Sar]-NMe2; disulfide 1-6)
5 | > 16600 nM | 198 A^2 | CC(=O)N(C)CCCC[C@@H]1NC(=O)[C@H](CC(C)C)NC(=O)[C@H]([C@@H](C)O)NC(=O)[C@H](CC(=O)N(C)C)NC(=O)[C@@H](NC(=O)CCOCCOCC[N+](C)(C)C)C(C)(C)SSC(C)(C)[C@@H](C(=O)N[C@@H](Cc2ccc(OCCCCC[N+](C)(C)C)cc2)C(=O)N[C@@H](Cc2ccc3ccccc3c2)C(=O)NC2(C(=O)N[C@@H](CCCCN(C)C(C)=O)C(=O)N[C@@H](CC(N)=O)C(=O)N[C@@H](Cc3cccnc3)C(=O)N(C)CC(=O)N(C)C)CCOCC2)NC1=O [compound 511, cPEG3aCO-Pen(3)-N(N(Me)2)-T-L-K(NMeAc)-Pen(3)-TMAPF-2Nal-THP-K(NMeAc)-N-3Pya-Sar-CONMe2] ({Me3N+(CH2)2O(CH2)2O(CH2)2CO}-[Pen]D(NMe2)TL[Lys(Me)](Ac)[Pen]Y(X3)[2Nal][Thp][Lys(Me)](Ac)N[3Pal][Sar]-NMe2; disulfide 1-6)
6 | 4.3 nM | 151 A^2 | CC(=O)N(C)CCCC[C@@H]1NC(=O)[C@H](Cc2c[nH]c3c(C)cccc23)NC(=O)[C@H]([C@@H](C)O)NC(=O)[C@H](CC(=O)N(C)C)NC(=O)[C@@H](NC(=O)CCOCCOCC[N+](C)(C)C)C(C)(C)SSC(C)(C)[C@@H](C(=O)N[C@@H](Cc2ccc(OCCCCC[N+](C)(C)C)cc2)C(=O)N[C@@H](Cc2ccc3ccccc3c2)C(=O)NC2(C(=O)N[C@@H](CCC(=O)O)C(=O)N[C@@H](CC(N)=O)C(=O)N[C@@H](Cc3cccnc3)C(=O)N(C)CC(=O)N(C)C)CCOCC2)NC1=O [compound 165, cPEG3aCO-Pen(3)-N(N(Me)2)-T-7MeW-K(NMeAc)-Pen(3)-TMAPF-2Nal-THP-E-N-3Pya-Sar-CON(Me)2] ({Me3N+(CH2)2O(CH2)2O(CH2)2CO}-[Pen]D(NMe2)T[Trp(7-Me)][Lys(Me)](Ac)[Pen]Y(X3)[2Nal][Thp]EN[3Pal][Sar]-NMe2; disulfide 1-6)
7 | 1.2 nM | 153 A^2 | CC(=O)N(C)CCCC[C@@H]1NC(=O)[C@H](Cc2c[nH]c3c(C)cccc23)NC(=O)[C@H]([C@@H](C)O)NC(=O)[C@H](CC(=O)N(C)C)NC(=O)[C@@H](NC(=O)CCOCCOCC[N+](C)(C)C)C(C)(C)SSC(C)(C)[C@@H](C(=O)N[C@@H](Cc2ccc(N=[N+]=[N-])cc2)C(=O)N[C@@H](Cc2ccc3ccccc3c2)C(=O)NC2(C(=O)N[C@@H](CCCCN(C)C(C)=O)C(=O)N[C@@H](CC(N)=O)C(=O)N[C@@H](Cc3cccnc3)C(=O)N(C)CC(=O)N(C)C)CCOCC2)NC1=O [compound 331, cPEG3aCO-Pen(3)-N(N(Me)2)-T-7MeW-K(NMeAc)-Pen(3)-F(4N3)-2Nal-THP-K(NMeAc)-N-3Pya-Sar-CON(Me)2] ({Me3N+(CH2)2O(CH2)2O(CH2)2CO}-[Pen]D(NMe2)T[Trp(7-Me)][Lys(Me)](Ac)[Pen][Phe(4-N3)][2Nal][Thp][Lys(Me)](Ac)N[3Pal][Sar]-NMe2; disulfide 1-6)
8 | 1.4 nM | 167 A^2 | CC(=O)N(C)CCCC[C@@H]1NC(=O)[C@H](Cc2c[nH]c3c(C)cccc23)NC(=O)[C@H]([C@@H](C)O)NC(=O)[C@H](CC(=O)N(C)C)NC(=O)[C@@H](NC(=O)CCOCCOCC[N+](C)(C)C)C(C)(C)SSC(C)(C)[C@@H](C(=O)N[C@@H](Cc2ccc(OCCN3CC[N+]4(CC3)CC[N+](C)(C)CC4)cc2)C(=O)N[C@@H](Cc2ccc3ccccc3c2)C(=O)NC2(C(=O)N[C@@H](CCCCN(C)C(C)=O)C(=O)N[C@@H](CC(N)=O)C(=O)N[C@@H](Cc3cccnc3)C(=O)N(C)CC(=O)N(C)C)CCOCC2)NC1=O [compound 269, cPEG3aCO-Pen(3)-N(N(Me)2)-T-7MeW-K(NMeAc)-Pen(3)-DMTASF-2Nal-THP-K(NMeAc)-N-3Pya-Sar-CON(Me)2] ({Me3N+(CH2)2O(CH2)2O(CH2)2CO}-[Pen]D(NMe2)T[Trp(7-Me)][Lys(Me)](Ac)[Pen]Y(X47)[2Nal][Thp][Lys(Me)](Ac)N[3Pal][Sar]-NMe2; disulfide 1-6)
9 | 79 nM | 142 A^2 | COCCOCCOCC[N+](C)(C)CCc1cn(C[C@H](NC(=O)[C@H]2NC(=O)[C@H](CCCCN(C)C(C)=O)NC(=O)[C@H](Cc3c[nH]c4c(C)cccc34)NC(=O)[C@H]([C@@H](C)O)NC(=O)[C@H](CC(=O)N(C)C)NC(=O)[C@@H](NC(=O)CCOCCOCC[N+](C)(C)C)C(C)(C)SSC2(C)C)C(=O)N[C@@H](Cc2ccc3ccccc3c2)C(=O)NC2(C(=O)N[C@@H](CCCCN(C)C(C)=O)C(=O)N[C@@H](CC(N)=O)C(=O)N[C@@H](Cc3cccnc3)C(=O)N(C)CC(=O)N(C)C)CCOCC2)nn1 [compound 289, cPEG3aCO-Pen(3)-N(N(Me)2)-T-7MeW-K(NMeAc)-Pen(3)-TzlChmPEG3-2Nal-THP-K(NMeAc)-N-3Pya-Sar-CON(Me)2]
